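Compound exposure: 48 hours, 5 concentrations, 96-well plates. GI50 marks 50% less growth. The concentration for full growth arrest is given as TGI.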
Key:
Experiment in all cases: growth of human tumour cells (NCI), 48 h
[1] = system: NCI-H522 lung
[2] = system: HS 578T breast
[3] = system: KM12 colon
[4] = system: SN12C renal
[5] = system: OVCAR-5 ovarian
[6] = system: COLO 205 colon
[7] = system: UACC-257 melanoma
[8] = system: HOP-92 NSCLC
[9] = system: A498 renal
[10] = system: U251 CNS

SMILES | GI50 [1] | TGI [1] | GI50 [2] | TGI [2] | GI50 [3] | TGI [3] | GI50 [4] | TGI [4] | GI50 [5] | TGI [5] | GI50 [6] | TGI [6] | GI50 [7] | TGI [7] | GI50 [8] | TGI [8] | GI50 [9] | TGI [9] | GI50 [10] | TGI [10]
COc1ccc(C2CC(=O)Nc3c2c(C)nn3-c2nc3ccccc3[nH]2)cc1OC (configuration not stated) | 3.83 µM | 25.6 µM | 4.49 µM | > 100 µM | 3.7 µM | 14.1 µM | 5.96 µM | 35.5 µM | 25.4 µM | > 77.2 µM | 9.36 µM | 40.7 µM | 6.46 µM | 55.4 µM | 6.01 µM | 35.1 µM | 2.01 µM | 13.4 µM | 4.58 µM | 19.7 µM
O=C1NC(=O)/C(=C/c2ccc3nccc(-c4ccncc4)c3c2)S1 | 0.23 µM | 1.81 µM | 0.119 µM | 0.54 µM | 0.817 µM | > 10 µM | 0.396 µM | > 10 µM | 0.326 µM | 3.89 µM | 0.454 µM | 3.67 µM | 0.528 µM | 5.22 µM | 0.0806 µM | 0.494 µM | 0.0335 µM | 0.208 µM | 0.261 µM | 2.23 µM
COc1cccc(/C=C/C(=O)c2cc3c(N)c(C(=O)Nc4ccccc4)sc3nc2C)c1 | 1.06 µM | 3.08 µM | 1.92 µM | > 50 µM | 0.988 µM | 2.23 µM | 1.12 µM | 2.78 µM | 1.28 µM | 4.61 µM | 1.54 µM | 4.71 µM | 1.9 µM | 8.97 µM | 1.08 µM | 4.24 µM | 1.18 µM | 4.41 µM | 0.897 µM | 1.72 µM
CCN1C(=O)N(CC)C2C1NN=c1s/c(=C\c3ccc(Br)cc3)c(=O)n12 (configuration not stated) | 0.0558 µM |  | 0.194 µM | > 100 µM | 0.0604 µM | > 100 µM | 0.512 µM | > 100 µM | 0.583 µM | > 100 µM | 0.258 µM |  | 0.849 µM | > 100 µM | 0.0365 µM | > 63.7 µM | 0.0833 µM | > 100 µM | 0.18 µM | > 54.2 µM
Nc1cc2c3ccccc3ccc2c2ccccc12 | > 100 µM | > 100 µM | > 100 µM | > 100 µM | > 100 µM | > 100 µM | > 100 µM | > 100 µM | > 100 µM | > 100 µM | > 100 µM | > 100 µM | > 100 µM | > 100 µM | > 100 µM | > 100 µM | > 100 µM | > 100 µM | 21.4 µM | > 100 µM
NS(=O)(=O)c1ccc(NC(=O)Nc2cccc3ccccc23)cc1 |  | 34.9 µM |  | > 100 µM |  | > 100 µM |  | > 100 µM |  | > 100 µM |  | > 100 µM |  | > 100 µM |  | > 100 µM |  | 52.2 µM |  | 36.2 µM
OCC1OC(n2cnc3cc(Cl)c(Cl)cc32)C(O)C1O (configuration not stated) | 16.3 µM | 54.4 µM | 27 µM | > 96.3 µM | 28.3 µM | > 100 µM | 20.6 µM | 58.4 µM | 8.01 µM | 36.5 µM | 23.8 µM | > 84.5 µM | 18.7 µM | 40.7 µM | 35.2 µM | 99 µM | > 47.3 µM | > 67.7 µM | 13.8 µM | 37.5 µM
C[C@H]1O[C@@H](O[C@H]2[C@@H](O)C[C@H](O[C@H]3[C@@H](O)C[C@H](O[C@H]4CC[C@]5(C)C6CC[C@]7(C)[C@@H](C8=CC(=O)OC8)CC[C@]7(O)C6CC[C@@H]5C4)O[C@@H]3C)O[C@@H]2C)C[C@H](O)[C@@H]1O (some centres not stated) |  | 0.0319 µM | 0.013 µM | 1.57 µM | 0.0247 µM | 0.103 µM | 0.0167 µM | 0.112 µM | 0.0383 µM | 0.111 µM | 0.0309 µM | 0.102 µM | 0.0203 µM | 0.0734 µM | 0.0354 µM | 0.149 µM | 0.0351 µM | 0.262 µM | 0.0186 µM | 0.0676 µM
O=C(O)[C@@H](Cc1ccccc1)NS(=O)(=O)c1ccc(-c2ccccc2)cc1 | > 100 µM | > 100 µM | > 100 µM | > 100 µM | > 100 µM | > 100 µM | > 100 µM | > 100 µM | > 100 µM | > 100 µM | > 100 µM | > 100 µM | > 100 µM | > 100 µM | 24.9 µM | > 100 µM | 59.6 µM | > 100 µM | > 100 µM | > 100 µM
N/C(=N/O)NOCCC(N)C(=O)O (configuration not stated) | > 100 µM | > 100 µM | > 100 µM | > 100 µM | > 100 µM | > 100 µM | > 100 µM | > 100 µM | > 100 µM | > 100 µM | > 100 µM | > 100 µM | > 100 µM | > 100 µM | > 100 µM | > 100 µM | > 100 µM | > 100 µM | > 100 µM | > 100 µM
Cc1cccc(Nc2ncc(-c3ccccc3)o2)c1 | > 25 µM | > 25 µM | > 7 µM | > 25 µM | 8.04 µM | > 25 µM | > 25 µM | > 25 µM | > 25 µM | > 25 µM | > 25 µM | > 25 µM | > 25 µM | > 25 µM | > 25 µM | > 25 µM | > 25 µM | > 25 µM | > 25 µM | > 25 µM
CCN(Cc1c(F)cccc1C(F)(F)F)c1ccc(CO)c(Cl)c1 | 12.6 µM | 27 µM | 18.3 µM | 42.1 µM | 14.1 µM | 29.4 µM | 13 µM | 26.2 µM | < 0.0249 µM | 0.205 µM | 2.44 µM | 14 µM | < 0.0407 µM | 0.187 µM | 0.856 µM | 16 µM | < 0.0191 µM | 0.0463 µM | 0.623 µM | 17.5 µM
Cc1cc(C2CC(O)C(CO)O2)c(Br)cc1Br (configuration not stated) | > 100 µM | > 100 µM | 49.9 µM | > 100 µM | > 100 µM | > 100 µM | > 100 µM | > 100 µM | > 100 µM | > 100 µM | > 100 µM | > 100 µM | > 100 µM | > 100 µM | > 100 µM | > 100 µM | 36.7 µM | > 100 µM | > 100 µM | > 100 µM
COc1ccc(N2CCN(c3nc(-c4ccccn4)nc4sc5c(c34)CCCCCC5)CC2)cc1 | 18.6 µM | > 100 µM | 57.6 µM | > 100 µM | 5.15 µM | > 100 µM | 5.99 µM | > 100 µM | 51.7 µM | > 100 µM | 5.61 µM | > 100 µM | 7.22 µM | > 100 µM | 3.24 µM | > 100 µM | 3.3 µM | > 100 µM | 4.26 µM | > 100 µM
CC1(/C=C/c2ccc(-c3ccccc3)cc2)CCn2cnc3ncnc(c32)N1O (configuration not stated) | 0.521 µM | 34 µM | 3.37 µM | 30.9 µM | 0.415 µM | 23.1 µM | 0.508 µM | 40.7 µM | 0.623 µM | 58.7 µM | 0.326 µM | 32.8 µM | 0.445 µM | 25.3 µM | 3.72 µM | 65.6 µM | 0.0387 µM | 3.99 µM | 0.418 µM | 22 µM
CN(N=O)N1C(=O)SCC(c2ccccc2)(c2ccccc2)C1=O |  | 91.1 µM |  | > 100 µM |  | > 100 µM |  | > 100 µM |  | > 100 µM |  | > 100 µM |  | > 100 µM |  | > 100 µM |  | > 100 µM |  | > 100 µM
c1ccc(OCC[P+](c2ccccc2)(c2ccccc2)c2ccccc2)cc1 | 0.335 µM | 3.74 µM | 2.27 µM | 16.5 µM | 1.31 µM | 8.84 µM | 1.94 µM | 16.4 µM | 2.66 µM | 20.6 µM | 0.549 µM | 2.02 µM | 0.425 µM | 5.41 µM | 0.312 µM | 3.06 µM | 3.53 µM | 16.6 µM | 0.99 µM | 13 µM
O=C(Nc1n[nH]c2cc(-c3ccc(F)cc3)ccc12)C1CC1 | 4.92 µM | > 21.1 µM | 10.7 µM | > 25 µM | 4.11 µM | > 25 µM | 10.8 µM | > 25 µM | 14.8 µM | > 25 µM | 8.12 µM | > 18.8 µM | 14.1 µM | > 25 µM | 23.3 µM | > 25 µM | 12.3 µM | > 25 µM | 10.2 µM | > 25 µM
Clc1ccc(Nc2nnc(COc3ccccc3)c3ccccc23)cc1 | 0.354 µM | 4.04 µM | 2.58 µM | 10.5 µM | 2.65 µM | 7.72 µM | 2.12 µM | 8.07 µM | 3.88 µM | 15.4 µM | 0.456 µM | 4.38 µM | 2.54 µM | 5.82 µM | 0.331 µM | 3.09 µM | 0.686 µM | 3.64 µM | 2.93 µM | 7.47 µM
